Source: patent publication US9771378B2 (Denali Therapeutics, Inc., priority 2014, dated 2017)

System: Aβ42 (human neuroglioma H4 cells expressing human wild type APP751)
Experiment: In vitro cell screening assay with sandwich ELISA quantification of Aβ42 peptide
Type: cell-based
Settings: H4 cells stably expressing human wild type APP751; Pro293 chemically defined medium; compounds 0.003-10 μM; incubated overnight (16-18 h); supernatant Aβ42 by sandwich ELISA; normalized to DMSO and DAPT; read-out: Aβ42 H4 Prot Fre IC50
How it was run: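 Aβ42 in supernatants was quantified by sandwich ELISA with C-terminal-specific capture and 4G8-HRP detection, absorbance at 450 nm. Stable APP751-expressing human H4 cells received compound at 0.003-10 μM (0.33% DMSO) overnight (16-18 h). IC50 was derived from percent-of-DMSO-control data by nonlinear variable-slope fit.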

| SMILES | IC50 [µM] |
| --- | --- |
| COc1nc(Nc2ncc3c(n2)N(C)C(c2cc(F)cc(F)c2)CO3)ccc1-c1cnn(C)c1 (single isomer, unassigned; (+)) [Example 184B] | > 3 |
| Cc1cc(-c2ccc(Nc3ncc4c(n3)N(C)C(c3cc(F)c(F)c(F)c3)CO4)cc2)ccn1 (racemic) [Example 37] | 0.103 |
| COc1cc(Nc2ncc3c(n2)N(C)C(c2ccc(F)cc2Cl)CO3)ccc1-n1cnc(C)c1 (single isomer, unassigned; (-)) [Example 93A] | 0.189 |
| Cc1cn(-c2ccc(Nc3ncc4c(n3)N(C)C(c3cc(F)c(F)c(F)c3)CO4)cc2)cn1 (racemic) [Example 44] | 0.075 |
| COc1cc(Nc2ncc3c(n2)N(C)C(c2ccc(Cl)cc2Cl)CO3)ccc1-n1cnc(C)c1 (single isomer, unassigned; (-)) [Example 95A] | 0.116 |
| COc1cc(Nc2ncc3c(n2)N2CCOC[C@H]2CO3)ccc1-n1cnc(C)c1 [Example 295] | 0.496 |
| COc1cc(Nc2ncc3c(n2)N(C)C(c2cc(F)ccc2C(F)(F)F)CO3)ccc1-n1cnc(C)c1 (single isomer, unassigned; (+)) [Example 105B] | 0.051 |
| Cc1cn(-c2ccc(Nc3ncc4c(n3)N(C)C(c3cc(F)c(F)cc3C(F)(F)F)CO4)cc2F)cn1 (single isomer, unassigned) [Example 198B] | 0.101 |
| Cc1cn(-c2ccc(Nc3ncc4c(n3)N(C)C(c3ccccc3C)CO4)cc2)cn1 (racemic) [Example 43] | 0.216 |
| Cc1cn(-c2ccc(Nc3ncc4c(n3)N(C)C(c3ccc(F)cc3F)CO4)cc2F)cn1 (single isomer, unassigned; (-)) [Example 69B] | > 3 |
| COc1cc(Nc2ncc3c(n2)N(C)C(c2ccccc2C)CO3)ccc1-n1cnc(C)c1 (racemic) [Example 31] | 0.025 |
| COc1cc(Nc2ncc3c(n2)N(C)C(c2ccc(F)cc2F)CO3)cnc1-n1cnc(C)c1 (single isomer, unassigned; (-)) [Example 186B] | 0.328 |
| COc1cc(Nc2ncc3c(n2)N(C)C(c2cc(F)cc(F)c2)CO3)ccc1-n1cnc(C)c1 (single isomer, unassigned; (+)) [Example 30B] | 0.023 |
| COc1cc(Nc2ncc3c(n2)N(C)C(C)CO3)cnc1-n1cnc(C)c1 (single isomer, unassigned; (-)) [Example 185B] | 0.54 |
| COc1cc(Nc2ncc3c(n2)N(C)C(C2(C(F)(F)F)CC2)CO3)cnc1-n1cnc(C)c1 (single isomer, unassigned; (+)) [Example 247B] | 0.005 |
| COc1ccc(C)c(C2COc3cnc(Nc4ccc(-n5cnc(C)c5)c(OC)c4)nc3N2C)c1 (single isomer, unassigned; (-)) [Example 175B] | 0.095 |
| Cc1cn(-c2ncc(Nc3ncc4c(n3)N(C)C(C(F)(F)F)CO4)cc2Cl)cn1 (single isomer, unassigned; (-)) [Example 229A] | 0.215 |
| Cc1cn(-c2ccc(Nc3ncc4c(n3)N(C)C(c3ccccc3C)CO4)cc2)cn1 (single isomer, unassigned; (-)) [Example 43B] | > 0.3 |
| COc1cc(Nc2ncc3c(n2)N(C)C(c2cc(F)cc(F)c2)CO3)cnc1-n1cnc(C)c1 (single isomer, unassigned; (+)) [Example 189A] | 0.013 |
| COc1cc(Nc2ncc3c(n2)N(C)C(C)CO3)ccc1-n1cnc(Cl)c1 (single isomer, unassigned; (-)) [Example 202A] | 0.167 |
| COc1cc(Nc2ncc3c(n2)N2CCC(F)(F)C2CO3)ccc1-n1cnc(C)c1 (single isomer, unassigned; (+)) [Example 304B, (+)-7,7-difluoro-N-(3-methoxy-4-(4-methyl-1H-imidazol-1-yl)phenyl)-6a, 7,8,9-tetrahydro-6H-pyrimido [5,4-b] pyrrolo [1,2-d] [1, 4] oxazin-2-amine] | 0.075 |
| COc1cc(Nc2ncc3c(n2)N(C)C(c2cc(F)cc(F)c2)CO3)ccc1-n1cnc(C)c1 (racemic) [Example 30] | 0.018 |
| Cc1cc(-c2ccc(Nc3ncc4c(n3)N(C)C(c3cc(F)c(F)c(F)c3)CO4)cc2F)ccn1 (single isomer, unassigned; (+)) [Example 36A] | 0.107 |
| COc1cc(Nc2ncc3c(n2)N(C)C(c2cc(F)c(F)cc2F)CO3)cnc1-n1cnc(C)c1 (single isomer, unassigned; (+)) [Example 181B] | 0.392 |
| COc1cc(Nc2ncc3c(n2)N(C)C(c2ccc(C(F)(F)F)cc2C(F)(F)F)CO3)ccc1-n1cnc(C)c1 (racemic) [Example 91] | 0.11 |
| Cc1cn(-c2ccc(Nc3ncc4c(n3)N(C)C(c3cc(F)cc(F)c3)CO4)cc2C(F)F)cn1 (single isomer, unassigned; (+)) [Example 222A] | 0.361 |
| Cc1cn(-c2ccc(Nc3ncc4c(n3)N(C)C(C)CO4)cc2C#N)cn1 (single isomer, unassigned; (-)) [Example 205B, (−)-5-((7,8-dimethyl-7,8-dihydro-6H-pyrimido [5,4-b] [1, 4]oxazin-2-yl)amino)-2-(4-methyl-1H-imidazol-1-yl) benzonitrile] | 0.259 |

| SMILES | IC50 [µM] |
| --- | --- |
| COc1cc(Nc2ncc3c(n2)N(C)C(c2ccccc2C)CO3)cnc1-n1cnc(C)c1 (single isomer, unassigned; (-)) [Example 171B] | 0.067 |
| Cc1cc(-c2ccc(Nc3ncc4c(n3)N(C)C(c3cc(F)cc(F)c3)CO4)cc2)ccn1 (single isomer, unassigned; (+)) [Example 28B] | 0.06 |
| COc1cc(Nc2ncc3c(n2)N(C)C(c2ccccc2C)CO3)ccc1-n1cnc(C)c1 (single isomer, unassigned; (+)) [Example 31B] | 0.0296 |
| Cc1cn(-c2ccc(Nc3ncc4c(n3)N(C)C(c3cc(F)cc(F)c3)CO4)cc2F)cn1 (single isomer, unassigned; (+)) [Example 33A] | 0.014 |
| Cc1cn(-c2ccc(Nc3ncc4c(n3)N(C)C(c3ccc(F)cc3F)CO4)cc2F)cn1 (single isomer, unassigned; (+)) [Example 69A] | 0.069 |
| Cc1cn(-c2ccc(Nc3ncc4c(n3)N(C)C(C)(C)CO4)nc2)cn1 [Example 262] | > 3 |
| COc1cc(Nc2ncc3c(n2)N(C)[C@H](c2ccccc2)CO3)ccc1-c1ccnc(C)c1 [Example 22B, (R)—N-(3-methoxy-4-(2-methylpyridin-4-yl)phenyl)-8-methyl-7-phenyl-7,8-dihydro-6H-pyrimido[5,4-b][1,4]oxazin-2-amine] | 0.168 |
| COc1cc(Nc2ncc3c(n2)N(C)C(c2cc(F)cc(F)c2)CO3)ccc1-c1ccnc(C)c1 (racemic) [Example 42] | 0.047 |
| Cc1cn(-c2ccc(Nc3ncc4c(n3)N(C)C(c3ccccc3)CO4)cc2F)cn1 (racemic) [Example 25] | 0.101 |
| COc1cc(Nc2ncc3c(n2)N(C)C2(CC2)CO3)ccc1-c1cnn(C)c1 [Example 269] | 0.703 |
| COc1cc(Nc2ncc3c(n2)N(C)C2(CO3)CC(F)(F)C2)cnc1-n1cnc(C)c1 [Example 278] | 0.092 |
| COc1cc(Nc2ncc3c(n2)N(C)[C@@H](C2CCC2)CO3)cnc1-n1cnc(C)c1 [Example 235] | 0.017 |
| Cc1cn(-c2ccc(Nc3ncc4c(n3)N(C)C(c3ccccc3)CO4)cc2)cn1 (single isomer, unassigned; (+)) [Example 26A] | 0.055 |
| COc1nc(Nc2ncc3c(n2)N(C)C(c2cc(F)cc(F)c2)CO3)ccc1-c1ccnc(C)n1 (single isomer, unassigned; (-)) [Example 183B] | > 3 |
| Cc1cc(-c2ccc(Nc3ncc4c(n3)N(C)C(c3ccccc3)CO4)cc2)ccn1 (single isomer, unassigned; (-)) [Example 24B] | 1.02 |
| Cc1cc(-c2ccc(Nc3ncc4c(n3)N(C)C(c3cc(F)cc(F)c3)CO4)cc2F)ccn1 (single isomer, unassigned; (+)) [Example 41A] | 0.077 |
| COc1cc(Nc2ncc3c(n2)N(C)C(c2cc(F)c(F)c(F)c2)CO3)ccc1-c1ccnc(C)c1 (racemic) [Example 39] | 0.035 |
| COc1cc(Nc2ncc3c(n2)N2CCC(F)(F)C2CO3)cnc1-n1cnc(C)c1 (single isomer, unassigned; (+)) [Example 305A, (+)-7,7-difluoro-N-(5-methoxy-6-(4-methyl-1H-imidazol-1-yl)pyridin-3-yl)-6a, 7,8,9-tetrahydro-6H-pyrimido [5,4-b] pyrrolo [1,2-d] [1, 4] oxazin-2-amine] | 0.132 |
| COc1cc(Nc2ncc3c(n2)N(C)C(C)CO3)cnc1-n1cnc(C)c1 (single isomer, unassigned; (+)) [Example 185A] | 0.241 |
| Cc1cn(-c2ccc(Nc3ncc4c(n3)N(C)C(c3cc(F)cc(F)c3)CO4)cc2)cn1 (single isomer, unassigned; (-)) [Example 23A] | 2.04 |
| COc1cc(Nc2ncc3c(n2)N(C)[C@@H](C2CCC2)CO3)ccc1-n1cnc(C)c1 [Example 227] | 0.019 |
| Cc1cn(-c2ccc(Nc3ncc4c(n3)N(C)C(c3ccc(Cl)cc3Cl)CO4)cc2F)cn1 (single isomer, unassigned; (+)) [Example 96A] | 0.076 |
| COc1cc(Nc2ncc3c(n2)N(C)C(C2CC(F)(F)C2)CO3)ccc1-n1cnc(C)c1 (single isomer, unassigned; (+)) [Example 212B] | 0.061 |
| Cc1cc(-c2ccc(Nc3ncc4c(n3)N(C)C(c3cc(F)cc(F)c3)CO4)cc2)ccn1 (racemic) [Example 28] | 0.09 |
| COc1cc(Nc2ncc3c(n2)N(C)C(c2cc(F)cc(F)c2)CO3)ccc1-n1cnc(Cl)c1 (single isomer, unassigned; (-)) [Example 204A] | 0.433 |
| COc1cc(Nc2ncc3c(n2)N(C)C(C(F)(F)F)CO3)ccc1C#N (single isomer, unassigned; (+)) [Example 230A, (+)-2-methoxy-4-((8-methyl-7-(trifluoromethyl)-7,8-dihydro-6H-pyrimido [5,4-b] [1, 4]oxazin-2-yl)amino) benzonitrile] | > 3 |
